Results from article PMC7316778 (Nature Communications, 2020).
“And” between values parts separate entries of the source, which are not always exact repeats. Identical values can stand only once. Like-named read-outs stand apart in the source and are kept apart here.

Key:
Assay in all cases: SelectScreen kinase assay
ULK2 = molecular target: T1, ULK2 (Homo sapiens, UniProt Q8IYT8)
T1 sequence (Q8IYT8 1-1036): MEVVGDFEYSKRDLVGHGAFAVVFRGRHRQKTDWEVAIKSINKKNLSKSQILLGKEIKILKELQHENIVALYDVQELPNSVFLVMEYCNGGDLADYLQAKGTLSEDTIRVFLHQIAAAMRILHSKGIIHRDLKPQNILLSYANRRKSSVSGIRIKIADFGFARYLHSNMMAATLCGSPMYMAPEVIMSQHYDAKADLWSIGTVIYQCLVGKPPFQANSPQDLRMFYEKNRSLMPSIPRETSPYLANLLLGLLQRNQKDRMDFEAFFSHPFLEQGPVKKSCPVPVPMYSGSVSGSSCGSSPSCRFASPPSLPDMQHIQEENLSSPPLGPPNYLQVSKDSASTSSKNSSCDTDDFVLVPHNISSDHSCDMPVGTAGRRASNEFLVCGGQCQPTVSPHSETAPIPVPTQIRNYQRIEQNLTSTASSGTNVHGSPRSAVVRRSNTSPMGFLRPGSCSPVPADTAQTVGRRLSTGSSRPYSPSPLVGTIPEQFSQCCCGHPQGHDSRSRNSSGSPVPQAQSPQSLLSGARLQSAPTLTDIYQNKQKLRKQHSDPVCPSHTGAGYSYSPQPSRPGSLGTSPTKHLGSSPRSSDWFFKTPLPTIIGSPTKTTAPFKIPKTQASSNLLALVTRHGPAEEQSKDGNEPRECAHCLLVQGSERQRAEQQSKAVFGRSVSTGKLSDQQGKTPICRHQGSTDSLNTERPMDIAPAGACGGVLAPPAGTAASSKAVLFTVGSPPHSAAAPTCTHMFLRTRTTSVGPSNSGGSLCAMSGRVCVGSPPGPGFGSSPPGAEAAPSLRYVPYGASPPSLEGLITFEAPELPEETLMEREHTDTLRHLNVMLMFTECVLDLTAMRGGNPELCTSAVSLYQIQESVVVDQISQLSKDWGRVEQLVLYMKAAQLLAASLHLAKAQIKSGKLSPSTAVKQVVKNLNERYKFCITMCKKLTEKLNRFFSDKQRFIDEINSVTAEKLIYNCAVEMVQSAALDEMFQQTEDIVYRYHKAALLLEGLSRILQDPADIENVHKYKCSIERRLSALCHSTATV
Description: (§1) Selectivity profiling assays were performed by the Invitrogen SelectScreen™ Services. […] The concentration of ATP was selected to be equal to the KM, unless indicated otherwise.

MAP4K3 (GLK) = molecular target: T2, MAP4K3 (GLK) (Homo sapiens, UniProt Q8IVH8)
T2 sequence (Q8IVH8 1-894): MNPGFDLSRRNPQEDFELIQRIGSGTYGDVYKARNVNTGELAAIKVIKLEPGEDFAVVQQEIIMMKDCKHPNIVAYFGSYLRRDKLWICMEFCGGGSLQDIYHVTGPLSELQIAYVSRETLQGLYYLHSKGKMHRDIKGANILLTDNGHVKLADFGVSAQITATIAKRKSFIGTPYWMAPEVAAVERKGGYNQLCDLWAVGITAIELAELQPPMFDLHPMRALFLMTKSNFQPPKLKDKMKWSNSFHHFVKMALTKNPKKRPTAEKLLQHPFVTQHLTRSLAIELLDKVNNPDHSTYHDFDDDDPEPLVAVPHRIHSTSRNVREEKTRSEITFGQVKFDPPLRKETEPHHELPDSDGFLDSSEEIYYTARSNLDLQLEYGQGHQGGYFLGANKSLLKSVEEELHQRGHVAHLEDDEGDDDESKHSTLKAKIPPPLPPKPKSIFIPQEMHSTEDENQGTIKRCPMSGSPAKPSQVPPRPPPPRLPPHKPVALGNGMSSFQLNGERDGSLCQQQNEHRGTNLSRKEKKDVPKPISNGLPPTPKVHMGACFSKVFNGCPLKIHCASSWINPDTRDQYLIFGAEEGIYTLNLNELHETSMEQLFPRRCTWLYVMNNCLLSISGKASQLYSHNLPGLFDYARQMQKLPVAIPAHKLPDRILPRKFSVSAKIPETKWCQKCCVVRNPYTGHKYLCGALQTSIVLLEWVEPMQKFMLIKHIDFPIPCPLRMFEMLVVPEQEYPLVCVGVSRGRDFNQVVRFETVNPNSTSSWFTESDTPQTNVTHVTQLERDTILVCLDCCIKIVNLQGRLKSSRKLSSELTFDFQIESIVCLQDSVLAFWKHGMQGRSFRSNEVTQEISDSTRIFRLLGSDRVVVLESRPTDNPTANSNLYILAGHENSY
Description: as §1

PASK = PASK (Homo sapiens, UniProt Q96RG2); details: for Inhibition at 1 µM (%): PASK, ZLYTE, ATP Km app
Sequence of PASK (Q96RG2 whole entry): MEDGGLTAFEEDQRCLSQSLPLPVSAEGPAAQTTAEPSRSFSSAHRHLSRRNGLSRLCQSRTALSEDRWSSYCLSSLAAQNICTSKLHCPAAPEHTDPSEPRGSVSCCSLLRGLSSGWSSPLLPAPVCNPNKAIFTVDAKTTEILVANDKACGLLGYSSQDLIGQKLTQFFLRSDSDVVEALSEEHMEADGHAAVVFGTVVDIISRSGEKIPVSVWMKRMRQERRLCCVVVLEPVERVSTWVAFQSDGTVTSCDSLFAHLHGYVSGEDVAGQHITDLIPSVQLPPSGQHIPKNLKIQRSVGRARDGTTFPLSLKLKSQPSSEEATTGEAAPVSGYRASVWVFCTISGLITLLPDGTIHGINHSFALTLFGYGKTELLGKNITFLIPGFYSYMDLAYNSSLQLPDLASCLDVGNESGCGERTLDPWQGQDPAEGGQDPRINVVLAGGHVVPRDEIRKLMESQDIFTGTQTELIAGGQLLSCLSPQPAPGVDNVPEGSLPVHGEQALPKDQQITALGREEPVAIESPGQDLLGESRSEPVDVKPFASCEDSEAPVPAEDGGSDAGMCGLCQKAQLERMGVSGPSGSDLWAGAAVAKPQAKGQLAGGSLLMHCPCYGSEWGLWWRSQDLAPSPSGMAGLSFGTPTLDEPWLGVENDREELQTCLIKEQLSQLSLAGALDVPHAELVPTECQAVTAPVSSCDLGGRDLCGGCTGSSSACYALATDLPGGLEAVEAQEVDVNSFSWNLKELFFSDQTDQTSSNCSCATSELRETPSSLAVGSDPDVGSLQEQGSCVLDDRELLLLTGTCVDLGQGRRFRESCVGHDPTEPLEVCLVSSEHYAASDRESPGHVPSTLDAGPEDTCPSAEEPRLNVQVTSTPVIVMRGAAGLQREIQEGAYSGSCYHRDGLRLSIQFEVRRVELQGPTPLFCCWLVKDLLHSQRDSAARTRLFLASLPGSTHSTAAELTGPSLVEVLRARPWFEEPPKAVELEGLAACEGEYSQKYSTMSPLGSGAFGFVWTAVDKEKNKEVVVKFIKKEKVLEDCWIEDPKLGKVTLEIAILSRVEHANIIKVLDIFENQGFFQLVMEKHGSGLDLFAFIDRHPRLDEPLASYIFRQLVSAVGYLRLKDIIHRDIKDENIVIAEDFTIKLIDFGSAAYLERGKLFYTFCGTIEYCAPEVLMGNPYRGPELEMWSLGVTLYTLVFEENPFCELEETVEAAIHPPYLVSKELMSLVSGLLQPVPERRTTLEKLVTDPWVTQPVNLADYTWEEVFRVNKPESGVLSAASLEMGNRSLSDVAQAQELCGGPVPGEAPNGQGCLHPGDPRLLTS
Description: as §1

PRKCD (PKC delta) = PRKCD (PKC delta) (Homo sapiens, UniProt Q05655); details: 1 h, 1 μM WEL028, 1 h preincubation
Sequence of PRKCD (PKC delta) (Q05655 whole entry): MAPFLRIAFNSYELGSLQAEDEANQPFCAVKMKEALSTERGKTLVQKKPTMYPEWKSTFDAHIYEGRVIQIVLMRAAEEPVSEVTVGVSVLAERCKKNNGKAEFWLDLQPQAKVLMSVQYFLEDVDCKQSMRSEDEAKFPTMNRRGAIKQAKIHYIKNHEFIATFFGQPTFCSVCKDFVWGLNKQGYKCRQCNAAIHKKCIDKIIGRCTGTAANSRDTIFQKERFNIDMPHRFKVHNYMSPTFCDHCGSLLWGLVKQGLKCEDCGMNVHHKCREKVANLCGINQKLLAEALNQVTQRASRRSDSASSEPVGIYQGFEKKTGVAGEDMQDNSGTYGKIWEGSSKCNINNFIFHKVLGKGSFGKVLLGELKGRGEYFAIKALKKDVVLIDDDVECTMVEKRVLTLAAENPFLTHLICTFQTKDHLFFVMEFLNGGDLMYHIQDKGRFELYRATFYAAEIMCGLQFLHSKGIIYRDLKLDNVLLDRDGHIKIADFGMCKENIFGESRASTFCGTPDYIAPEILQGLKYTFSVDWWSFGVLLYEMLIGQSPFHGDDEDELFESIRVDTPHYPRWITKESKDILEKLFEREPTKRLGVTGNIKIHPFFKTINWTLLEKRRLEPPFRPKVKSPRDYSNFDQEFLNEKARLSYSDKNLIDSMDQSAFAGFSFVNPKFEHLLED
Description: as §1

TXK = TXK (Homo sapiens, UniProt P42681)
Sequence of TXK (P42681 whole entry): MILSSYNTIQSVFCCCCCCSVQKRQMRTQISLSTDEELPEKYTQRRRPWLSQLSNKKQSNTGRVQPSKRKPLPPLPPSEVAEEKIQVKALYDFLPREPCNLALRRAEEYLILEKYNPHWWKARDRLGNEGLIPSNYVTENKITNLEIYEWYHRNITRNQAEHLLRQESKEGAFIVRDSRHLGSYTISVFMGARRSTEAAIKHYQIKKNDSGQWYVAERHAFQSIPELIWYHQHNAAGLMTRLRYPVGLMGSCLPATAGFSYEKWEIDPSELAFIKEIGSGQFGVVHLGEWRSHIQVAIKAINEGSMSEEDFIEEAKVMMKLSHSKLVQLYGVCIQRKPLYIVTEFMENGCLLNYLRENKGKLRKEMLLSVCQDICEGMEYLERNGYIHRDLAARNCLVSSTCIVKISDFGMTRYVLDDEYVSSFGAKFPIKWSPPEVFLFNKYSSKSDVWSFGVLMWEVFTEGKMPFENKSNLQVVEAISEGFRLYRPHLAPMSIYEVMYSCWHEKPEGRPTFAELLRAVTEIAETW
Description: as §1

SBK1 = SBK1 (Homo sapiens, UniProt Q52WX2)
Sequence of SBK1 (Q52WX2 whole entry): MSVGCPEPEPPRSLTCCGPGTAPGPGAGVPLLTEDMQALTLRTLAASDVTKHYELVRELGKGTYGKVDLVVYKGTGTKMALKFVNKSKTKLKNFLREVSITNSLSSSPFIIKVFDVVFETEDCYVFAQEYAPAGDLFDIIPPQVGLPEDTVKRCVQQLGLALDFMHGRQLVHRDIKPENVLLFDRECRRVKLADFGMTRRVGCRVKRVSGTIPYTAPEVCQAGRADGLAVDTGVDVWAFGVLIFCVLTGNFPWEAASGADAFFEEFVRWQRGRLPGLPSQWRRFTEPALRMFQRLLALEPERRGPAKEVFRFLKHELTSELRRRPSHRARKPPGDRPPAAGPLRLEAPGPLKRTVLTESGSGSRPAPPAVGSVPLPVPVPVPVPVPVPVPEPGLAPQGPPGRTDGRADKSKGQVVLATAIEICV
Description: as §1

[1] = 1 h, 1 μM WEL028, 1 h preincubation

SMILES: C#CCOc1ccc(Nc2ncc(Cl)c(Nc3ccccc3NC(=O)C=C)n2)c(OC)c1 [Compound 6]
- Inhibition at 1 µM (%) (ULK2; 1 µM, LanthaScreen Binding, listed as WEL028, 1 µM): 4%
- inhibition at 1 µM (ULK2; [1]): 3%
- inhibition at 1 µM (ULK2; read-out: Inhibition at 1 µM (%), 1 µM, LanthaScreen Binding): 2%
- Inhibition (%) (MAP4K3 (GLK); 1 μM WEL028, 1 h preincubation): 3%
- Inhibition at 1 µM (%) (MAP4K3 (GLK); MAP4K3 (GLK), 1 µM, LanthaScreen Binding, listed as WEL028, 1 µM): 2%
- inhibition at 1 µM (MAP4K3 (GLK); read-out: Inhibition at 1 µM (%), MAP4K3 (GLK), 1 µM, LanthaScreen Binding): 4%
- inhibition at 1 µM (PASK; [1]): 2%
- Inhibition at 1 µM (%) (PASK): -3%
- Inhibition at 1 µM (%) (PASK; listed as WEL028, 1 µM): 7%
- inhibition at 1 µM (PRKCD (PKC delta)): 14%
- inhibition at 1 µM (TXK; [1]): 7%
- inhibition at 1 µM (TXK; read-out: Inhibition at 1 µM (%), 1 µM, ZLYTE, ATP Km app): 8%
- Inhibition at 1 µM (%) (SBK1; 1 µM, ZLYTE, ATP Km app, listed as WEL028, 1 µM): 1% and 8%
- inhibition at 1 µM (SBK1; [1]): 5%
